Here are results for 1 compound from patent US11505553B2, “2-(Het)aryl-substituted fused heterocycle derivatives as pesticides” (Bayer Aktiengesellschaft, priority 2017, dated 2022).

Like-named read-outs stand apart in the source and are kept apart here.

Holding throughout (type): in vivo
In assay [1] the test system is Myzus persicae. Briefly: Myzus persicae spray test (MYZUPE), contrastive examples. As to conditions: 120 h, 5 dat, read-out: % efficacy. The method, then: Solvent: 78.0 parts by weight of acetone • • 1.5 parts by weight of dimethylformamide Emulsifier: alkylaryl polyglycol ether To produce a suitable active ingredient formulation, 1 part by weight of active ingredient is dissolved with the specified parts by weight of solvent and made up to the desired concentration with water containing an emulsifier concentration of 1000 ppm. To produce further test concentrations, the formulation is diluted with emulsifier-containing water. Discs of chinese cabbage leaves (Brassica pekinensis) infested by all stages of the green peach aphid (Myzus persicae) are sprayed with an active ingredient formulation of the desired concentration. After the desired time, the efficacy in % is determined. 100% means that all aphids have been killed; 0% means that no aphids have been killed.

Assay [2] relates to Nilaparvata lugens. Briefly: Nilaparvata lugens test (NILALU S). As to conditions: read-out: % efficacy. The protocol:
Solvent: 14 parts by weight of dimethylformamide Emulsifier: 2 parts by weight of alkylaryl polyglycol ether To produce an appropriate active ingredient formulation, 1 part by weight of active ingredient is dissolved with the stated parts by weight of solvent and emulsifier and made up with water until the desired concentration is attained. For production of further test concentrations, the mixture is diluted with water. If addition of ammonium salts or/and penetrants (rapeseed oil methyl ester) is required, these are each pipetted into the finished preparation solution in a concentration of 1000 ppm after the dilution. Rice plants (Oryza sativa, var. Balilla) are treated by spraying with the active ingredient formulation in the desired concentration and then populated with L3 larvae of the brown planthopper (Nilaparvata lugens). After the desired time, the kill in % is determined. 100% means that all planthoppers have been killed and 0%, means that no planthoppers have been killed.

Assay [3] has as its system Nilaparvata lugens. In words: Nilaparvata lugens spray test (NILALU). As to conditions: 96 h, 4 dat, read-out: % efficacy. The method, then:
Solvent: 52.5 parts by weight of acetone • 7 parts by weight of dimethylformamide
Emulsifier: alkylaryl polyglycol ether
To produce an appropriate active ingredient formulation, 1 part by weight of active ingredient is dissolved with the stated parts by weight of solvent and made up with water containing an emulsifier concentration of 1000 ppm until the desired concentration is attained. For production of further test concentrations, the mixture is diluted with emulsifier-containing water. If addition of ammonium salts or/and penetrants is required, these are each added to the preparation solution in a concentration of 1000 ppm.
Rice plants (Oryza sativa) are sprayed with an active ingredient formulation of the desired concentration and then populated with larvae of the rice cicada (Nilaparvata lugens).
After the desired time, the efficacy in % is determined. 100% means that all rice cicadas have been killed; 0% means that no rice cicadas have been killed.

In assay [4] the test system is Nezara viridula. In words: Nezara viridula spray test (NEZARA). As to conditions: 96 h, NEZAVI, 4 dat, read-out: % efficacy. The protocol: Solvent: 52.5 parts by weight of acetone • 7 parts by weight of dimethylformamide Emulsifier: alkylaryl polyglycol ether To produce an appropriate active ingredient formulation, 1 part by weight of active ingredient is dissolved with the stated parts by weight of solvent and made up with water containing an emulsifier concentration of 1000 ppm until the desired concentration is attained. For production of further test concentrations, the mixture is diluted with emulsifier-containing water. If addition of ammonium salts or/and penetrants is required, these are each added to the preparation solution in a concentration of 1000 ppm. Barley plants (Hordeum vulgare) infested with larvae of the southern green shield bug (Nezara viridula) are sprayed with an active ingredient formulation of the desired concentration. After the desired time, the efficacy in % is determined. 100% means that all bugs have been killed; 0% means that no bugs have been killed.

In assay [5] the test system is Aphis gossypii. Briefly: Aphis gossypii spray test (APHIGO). As to conditions: 144 h, 6 dat, read-out: % efficacy. The protocol: Solvent: 14 parts by weight of dimethylformamide Emulsifier: alkylaryl polyglycol ether To produce an appropriate active ingredient formulation, 1 part by weight of active ingredient is dissolved with the stated parts by weight of solvent and made up with water containing an emulsifier concentration of 1000 ppm until the desired concentration is attained. For production of further test concentrations, the mixture is diluted with emulsifier-containing water. If addition of ammonium salts or/and penetrants is required, these are each added to the preparation solution in a concentration of 1000 ppm. Cotton plants (Gossypium hirsutum) severely infested by the cotton aphid (Aphis gossypii) are sprayed with an active ingredient formulation of the desired concentration. After the desired time, the kill in % is determined. 100% means that all aphids have been killed; 0% means that no aphids have been killed.

In assay [6] the test system is Myzus persicae. In words: Myzus persicae drench test (MYZUPE D). As to conditions: soil, 240 h, 10 dat, read-out: % efficacy. The protocol:
Solvent: 7 parts by weight of dimethylformamide Emulsifier: 2 parts by weight of alkylaryl polyglycol ether To produce an appropriate active ingredient formulation, 1 part by weight of active ingredient is mixed with the stated amounts of solvent and emulsifier, and the concentrate is diluted with water to the desired concentration, it being necessary to take into account soil volume into which drenching is effected. It should be ensured that a concentration of 40 ppm of emulsifier in the soil is not exceeded. For production of further test concentrations, the mixture is diluted with water. Savoy cabbage plants (Brassica oleracea) in earth pots, infested by all stages of the green peach aphid (Myzus persicae), are drenched with an active ingredient formulation of the desired concentration. After the desired time, the efficacy in % is determined. 100% means that all aphids have been killed; 0% means that no aphids have been killed.

In assay [7] the test system is Tetranychus urticae. Briefly: Tetranychus urticae spray test; OP-resistant (TETRUR), contrastive examples. As to conditions: 144 h, 6 dat, read-out: % efficacy. The protocol: Solvent: 78.0 parts by weight of acetone • • 1.5 parts by weight of dimethylformamide Emulsifier: alkylaryl polyglycol ether To produce an appropriate active ingredient formulation, 1 part by weight of active ingredient is dissolved with the stated parts by weight of solvent and made up with water containing an emulsifier concentration of 1000 ppm until the desired concentration is attained. For production of further test concentrations, the mixture is diluted with emulsifier-containing water. Discs of bean leaves (Phaseolus vulgaris) infested by all stages of the common spider mite (Tetranychus urticae) are sprayed with an active ingredient formulation of the desired concentration. After the desired time, the efficacy in % is determined. 100% means that all spider mites have been killed; 0% means that no spider mites have been killed.

On to `CCNC(=O)Nc1ccc(S(=O)(=O)CC)c(-c2nc3cc(C(F)(F)C(F)(F)F)nnc3n2C)n1` [Comparison, reference compound], for which the Emax at 4 g/ha in assay [1] and in assay [3] was 0% throughout. The Emax at 0.8 ppm worked out at 5% in assay [2] (168 h, 7 dat); 20% in assay [2] (336 h, 14 dat); 0% in assay [6]. Moreover, in assay [4], the Emax at 0.8 g/ha worked out at 0%. For the same compound, the Emax at 4 ppm in assay [5] worked out at 15%. Moreover, the Emax at 100 g/ha in assay [7] turned out to be 0%.
